The data set can be described thus: in vivo. Also noted: species or system BALB/C athymic nude mice. The conditions noted are these: BALB/C athymic nude, mouse, iv, 150 uL of 1 mM, T/NT ratio. The protocol:
Mice with U87MG tumor xenografts (n = 10) were randomly divided into an experimental group (n = 5) and control group (n = 5). The mice in the experimental group were intravenously injected with 150 μL of FAM-tLyP-1 (1mM), while the control group received 150 μL of FAM-labeled control peptide (1mM). The mice were sacrificed after 1 h by cervical dislocation under ketamine/xylazine anesthesia. The tumor and normal organs were then removed, washed with PBS at least three times, and then collected for imaging ex vivo. FAM-tLyP-1 uptake in the tumor and normal organs was described by a blinded observer under blue light with an exposure time of 60 s, using the Kodak in-Vivo Imaging System F (Kodak, American), and processed for fluorescence intensity analysis. The fluorescence intensity was analyzed visually based on the brightness of the green light indicating uptake of FAM-tLyP-1.
The intensity of FAM-tLyP-1 uptake in the tumor and normal organs was analyzed blindly using the Kodak MI analysis software (Kodak, American). The fluorescence intensity was analyzed visually from high to low levels based on a color scale of white, red, yellow, green, blue, and black. Regions of interest (ROIs) were drawn around the border of the tumor and normal organs on the fluorescence images and the average fluorescence intensity was measured. The tumor/non-tumor ratios (T/NT ratios) were calculated by dividing the fluorescence intensity in the tumor by that of the normal organs.

SMILES strings stand for the structures. Peptide text beside a SMILES is read from it. * marks the point of attachment. 5FAM = O=C1OC2(c3ccc(O)cc3Oc3cc(O)ccc32)c2ccc(C(=O)*)cc21

As for `CSCC[C@H](N)C(=O)N[C@@H](C)C(=O)N[C@@H](CCC(N)=O)C(=O)N[C@@H](CCCCNC(=O)c1ccc2c(c1)C(=O)OC21c2ccc(O)cc2Oc2cc(O)ccc21)C(=O)N[C@H](C(=O)N[C@@H](CO)C(=O)N[C@@H](Cc1c[nH]cn1)C(=O)O)[C@@H](C)O` [FAM-control peptide] (H-MAQK(5FAM)TSH-OH), the tissue to tissue ratio at 1 h (T/brain) was found to be 1.32 ± 0.15; the tissue to tissue ratio at 1 h (T/heart) stood at 1.94 ± 0.26; the tissue to tissue ratio at 1 h (T/intestine) was found to be 0.87 ± 0.3; the tissue to tissue ratio at 1 h (T/kidney) stood at 0.57 ± 0.51; the tissue to tissue ratio at 1 h (T/liver) came to 1.28 ± 0.25; the tissue to tissue ratio at 1 h (T/lung) was 1.4 ± 0.1. In addition, the tissue to tissue ratio at 1 h is, setting by setting: (T/muscle) 1.31 ± 0.14; (T/spleen) 1.75 ± 0.17.
Consider `C[C@@H](O)[C@H](NC(=O)[C@H](CCCNC(=N)N)NC(=O)[C@H](CCCCNC(=O)c1ccc2c(c1)C(=O)OC21c2ccc(O)cc2Oc2cc(O)ccc21)NC(=O)[C@H](CC(N)=O)NC(=O)CNC(=O)[C@@H](N)CS)C(=O)N[C@@H](CCCNC(=N)N)C(=O)O` [FAM-tLyP-1] (H-CGNK(5FAM)RTR-OH), for which the tissue to tissue ratio at 1 h (T/brain) was 3.44 ± 0.83; the tissue to tissue ratio at 1 h (T/heart) stood at 4.61 ± 1; the tissue to tissue ratio at 1 h (T/intestine) is 0.84 ± 0.35; the tissue to tissue ratio at 1 h (T/kidney) was 0.88 ± 0.74; the tissue to tissue ratio at 1 h (T/liver) came out at 2.34 ± 0.36; the tissue to tissue ratio at 1 h (T/lung) was 3.29 ± 0.79. Moreover, the tissue to tissue ratio at 1 h (T/muscle) was 2.87 ± 0.45.

The values are drawn from article PMC4580457, “Use of Labelled tLyP-1 as a Novel Ligand Targeting the NRP Receptor to Image Glioma” (PLoS ONE, 2015).
